According to US20150337003A1, “ABIRATERONE AND ANALOGS THEREOF FOR THE TREATMENT OF DISEASES ASSOCIATED WITH CORTISOL OVERPRODUCTION” (CORTENDO AB (PUBL), priority 2013, published 2015):
Values after ≈ are worked out from the molar mass of the structure shown.

Assays:
Cyp3A4 = Cyp3A4 (Homo sapiens, UniProt P08684); assay: in vitro enzyme profile: Cyp3A4 inhibition; assay type: in vitro ADME
Cyp11 = assay: in vitro enzyme profile: Cyp11 inhibition; assay type: biochemical
Cyp2D6 = Cyp2D6 (Homo sapiens, UniProt P10635); assay: in vitro enzyme profile: Cyp2D6 inhibition; assay type: in vitro ADME
Cyp2D6, sequence (P10635 whole entry): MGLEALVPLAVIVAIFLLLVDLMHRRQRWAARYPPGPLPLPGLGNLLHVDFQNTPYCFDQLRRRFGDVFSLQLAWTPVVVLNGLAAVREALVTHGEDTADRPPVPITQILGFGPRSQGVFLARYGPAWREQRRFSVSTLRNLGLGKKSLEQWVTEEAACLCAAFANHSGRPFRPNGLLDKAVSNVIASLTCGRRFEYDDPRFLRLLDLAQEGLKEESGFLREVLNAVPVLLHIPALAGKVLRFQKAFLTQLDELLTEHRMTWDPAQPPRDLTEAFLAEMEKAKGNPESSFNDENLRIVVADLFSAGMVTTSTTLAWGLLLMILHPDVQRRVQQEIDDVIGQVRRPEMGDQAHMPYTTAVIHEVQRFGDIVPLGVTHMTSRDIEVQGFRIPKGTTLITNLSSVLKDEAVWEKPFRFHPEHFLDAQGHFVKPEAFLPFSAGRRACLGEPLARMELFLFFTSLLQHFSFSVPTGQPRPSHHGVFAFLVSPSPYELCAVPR

[1] = HLM t1/2 (microsomal stability); assay type: in vitro ADME; conditions: human, liver microsomes
Cyp17 = target: T1, Cyp17 (Homo sapiens, UniProt P05093); assay: biochemical; conditions: read-out: Cyp17 IC60 (nM)
T1 sequence (P05093 1-508): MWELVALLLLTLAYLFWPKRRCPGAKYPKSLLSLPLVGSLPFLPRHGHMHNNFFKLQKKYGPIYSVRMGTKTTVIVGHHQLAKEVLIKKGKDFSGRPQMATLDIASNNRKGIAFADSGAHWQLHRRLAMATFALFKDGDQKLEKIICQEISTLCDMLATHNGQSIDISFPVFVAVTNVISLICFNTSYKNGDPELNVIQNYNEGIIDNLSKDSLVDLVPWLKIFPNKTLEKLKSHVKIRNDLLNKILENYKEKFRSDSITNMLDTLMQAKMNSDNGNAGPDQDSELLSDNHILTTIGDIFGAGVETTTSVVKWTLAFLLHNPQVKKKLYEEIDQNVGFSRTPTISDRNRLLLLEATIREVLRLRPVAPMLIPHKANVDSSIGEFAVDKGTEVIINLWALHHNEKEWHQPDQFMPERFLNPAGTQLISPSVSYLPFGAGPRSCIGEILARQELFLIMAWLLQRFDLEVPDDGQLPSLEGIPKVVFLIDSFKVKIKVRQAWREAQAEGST

[2] = GPLM t1/2 (microsomal stability); assay type: in vitro ADME; conditions: guinea pig, liver microsomes
Cyp2C9 = Cyp2C9 (Homo sapiens, UniProt P11712); assay: in vitro enzyme profile: Cyp2C9 inhibition; assay type: in vitro ADME
Cyp2C9, sequence (P11712 whole entry): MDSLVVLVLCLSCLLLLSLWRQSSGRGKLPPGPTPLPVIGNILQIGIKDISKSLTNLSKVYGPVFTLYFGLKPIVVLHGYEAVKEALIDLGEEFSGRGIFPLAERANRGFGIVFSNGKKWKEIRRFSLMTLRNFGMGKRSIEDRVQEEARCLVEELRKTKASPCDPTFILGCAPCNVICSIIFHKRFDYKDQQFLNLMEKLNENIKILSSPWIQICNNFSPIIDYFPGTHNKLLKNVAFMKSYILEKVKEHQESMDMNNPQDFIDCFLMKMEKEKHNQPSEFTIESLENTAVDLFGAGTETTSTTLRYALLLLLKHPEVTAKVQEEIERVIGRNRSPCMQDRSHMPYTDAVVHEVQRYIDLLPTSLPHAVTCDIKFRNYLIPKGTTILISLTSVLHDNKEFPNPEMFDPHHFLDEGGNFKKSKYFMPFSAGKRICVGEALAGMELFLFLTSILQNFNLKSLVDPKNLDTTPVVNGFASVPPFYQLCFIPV

Cyp21 = target: T2, Cyp21 (Homo sapiens, UniProt P08686); assay: in vitro enzyme profile: Cyp21 inhibition; assay type: biochemical
T2 sequence (P08686 1-495): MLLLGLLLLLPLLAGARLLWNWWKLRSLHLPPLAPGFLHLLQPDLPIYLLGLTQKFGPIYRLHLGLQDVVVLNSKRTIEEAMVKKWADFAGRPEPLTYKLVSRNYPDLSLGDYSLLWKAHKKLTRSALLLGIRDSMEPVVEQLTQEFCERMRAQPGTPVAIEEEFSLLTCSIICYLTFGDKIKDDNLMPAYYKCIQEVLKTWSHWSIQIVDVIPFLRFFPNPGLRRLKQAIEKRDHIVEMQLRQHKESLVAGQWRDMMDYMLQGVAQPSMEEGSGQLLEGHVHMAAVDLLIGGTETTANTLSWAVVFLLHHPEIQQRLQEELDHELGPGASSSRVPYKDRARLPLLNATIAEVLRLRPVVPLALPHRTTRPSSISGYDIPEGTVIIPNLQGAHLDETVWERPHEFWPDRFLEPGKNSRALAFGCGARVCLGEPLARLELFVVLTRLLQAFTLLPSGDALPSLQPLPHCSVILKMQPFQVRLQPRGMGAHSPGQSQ

[3] = system: cortisol and testosterone after ACTH stimulation; assay: elevation of cortisol and testosterone after ACTH stimulation in male Guinea pigs; assay type: in vivo, Guinea pig; conditions: for Cortisol, plasma / testosterone, plasma / Cortisol, plasma, Mean / testosterone, plasma, Mean: 25 IU/kg ACTH + 100 mg/kg PO; for Cortisol, plasma, Mean: mean of 4 Guinea pigs
Protocol: Each animal was dosed by oral gavage according to the following table at −0.5 hr, and then dosed by intramuscular injection with ACTH 25 IU/kg at 0 hr.
Animals were sedated under general inhalant anesthesia (3% isoflurane) and blood samples were retrieved at 1, 2 and 4 hrs via saphenous vein. Blood aliquots (400 uL) were collected in tubes coated with K2-EDTA, mixed gently, then kept on ice and centrifuged at 2,000 g for 5 minutes at 4° C. within 15 minutes of collection. The plasma was then harvested and kept frozen at −80° C. until further processing.

Solubility = assay type: physicochemical
[4] = male Guinea pigs, ACTH stimulation, 100 mg/kg PO, vs vehicle

Cyp3A4, sequence (P08684 whole entry): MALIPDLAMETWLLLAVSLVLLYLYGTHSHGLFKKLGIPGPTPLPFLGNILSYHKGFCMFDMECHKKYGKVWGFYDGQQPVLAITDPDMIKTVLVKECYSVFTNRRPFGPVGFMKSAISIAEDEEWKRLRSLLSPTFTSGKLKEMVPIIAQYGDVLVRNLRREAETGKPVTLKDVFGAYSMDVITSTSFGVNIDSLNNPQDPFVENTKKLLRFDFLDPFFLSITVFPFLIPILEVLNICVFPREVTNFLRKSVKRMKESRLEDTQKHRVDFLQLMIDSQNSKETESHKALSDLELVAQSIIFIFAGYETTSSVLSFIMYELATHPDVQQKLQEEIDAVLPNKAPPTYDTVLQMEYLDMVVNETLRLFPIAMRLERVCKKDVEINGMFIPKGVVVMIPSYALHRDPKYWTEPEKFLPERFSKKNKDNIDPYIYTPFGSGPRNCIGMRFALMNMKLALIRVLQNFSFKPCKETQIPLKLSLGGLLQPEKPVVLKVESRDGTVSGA

- Cyp3A4 IC60 (Cyp3A4): 0.969 µM
- Cyp11 IC60 (Cyp11): 0.43 µM
- Cyp2D6 IC60 (Cyp2D6): 2 µM
- half-life [1]: 60 min
- IC60 (Cyp17): 1.78 nM
- half-life [2]: 7.7 min
- Cyp2C9 IC60 (Cyp2C9): 2 µM
- IC60 (Cyp21): 1.55 µM
- solubility (Solubility): 1 µM (≈ 0.35 µg/mL)
Structure (SMILES): C[C@]12CC[C@H](O)CC1=CC[C@@H]1[C@@H]2CC[C@]2(C)C(c3cccnc3)=CC[C@@H]12 [abiraterone, (3S,8R,9S,10R,13S,14S)-10,13-dimethyl-17-(pyridin-3-yl)-2,3,4,7,8,9,10,11,12,13,14,15-dodecahydro-1H-cyclopenta[a]phenanthren-3-ol]
- Cortisol, plasma ([3]; Guinea pig#19, 1 hr): 692 ng/mL
- testosterone, plasma ([3]; Guinea pig#19, 1 hr): BQL
- Cortisol, plasma ([3]; Guinea pig#19, 2 hr): 574 ng/mL
- testosterone, plasma ([3]; Guinea pig#19, 2 hr): BQL
- Cortisol, plasma ([3]; Guinea pig#19, 4 hr): 320 ng/mL
- testosterone, plasma ([3]; Guinea pig#19, 4 hr): 0.328 ng/mL
- Cortisol, plasma ([3]; Guinea pig#20, 1 hr): 821 ng/mL
- testosterone, plasma ([3]; Guinea pig#20, 1 hr): BQL
- Cortisol, plasma ([3]; Guinea pig#20, 2 hr): 720 ng/mL
- testosterone, plasma ([3]; Guinea pig#20, 2 hr): 0.473 ng/mL
- Cortisol, plasma ([3]; Guinea pig#20, 4 hr): 461 ng/mL
- testosterone, plasma ([3]; Guinea pig#20, 4 hr): BQL
- Cortisol, plasma ([3]; Guinea pig#21, 1 hr): 659 ng/mL
- testosterone, plasma ([3]; Guinea pig#21, 1 hr): BQL
- Cortisol, plasma ([3]; Guinea pig#21, 2 hr): 470 ng/mL
- testosterone, plasma ([3]; Guinea pig#21, 2 hr): BQL
- Cortisol, plasma ([3]; Guinea pig#21, 4 hr): 325 ng/mL
- testosterone, plasma ([3]; Guinea pig#21, 4 hr): BQL
- Cortisol, plasma ([3]; Guinea pig#22, 1 hr): 970 ng/mL
- testosterone, plasma ([3]; Guinea pig#22, 1 hr): 0.501 ng/mL
- Cortisol, plasma ([3]; Guinea pig#22, 2 hr): 876 ng/mL
- testosterone, plasma ([3]; Guinea pig#22, 2 hr): 0.520 ng/mL
- Cortisol, plasma ([3]; Guinea pig#22, 4 hr): 529 ng/mL
- testosterone, plasma ([3]; Guinea pig#22, 4 hr): 0.461 ng/mL
- effect on cortisol levels [3, 4]: significantly lower
- effect on testosterone levels [3, 4]: significantly lower
- Cortisol, plasma, Mean ([3]; 1 hr): 786 ng/mL
- Cortisol, plasma, Mean ([3]; 2 hr): 660 ng/mL
- Cortisol, plasma, Mean ([3]; 4 hr): 409 ng/mL
- testosterone, plasma, Mean ([3]; 1 hr): 0.501 ng/mL
- testosterone, plasma, Mean ([3]; 2 hr): 0.497 ng/mL
- testosterone, plasma, Mean ([3]; 4 hr): 0.395 ng/mL
